Reference: patent US7169567B1, “Screening assay utilizing the PTH receptor” (The General Hospital Corporation, priority 1998, dated 2007)
Entries after “also recorded” stand apart in the source; their conditions may differ. Where no end group is shown, it is not given here.

Assays:
[1] = test system: parental LLC-PK1 cells (no PTH receptors, endogenous calcitonin receptors); assay: cAMP response in untransfected parental LLC-PK1 cells; assay type: cell-based; conditions: untransfected LLC-PK1 cells expressing calcitonin receptor but no PTH receptors
Protocol: FIG. 2. cAMP-stimulating Activity of PTH Fragments in LLC-PK1 Cells. A) Rat PTH(1–34) analog or amino-terminal rPTH fragments were tested for cAMP-stimulating activity in an LLC-P1-derived cell line (HKRK-B7) stably transfected with the human PTH-1 receptor. Cells were treated with peptide at the indicated doses for 60 min at 22° C. Intracellular cAMP was measured by RIA, as described in Experimental Procedures. Shown are combined data (mean±s.e.m.) from 3 separate experiments, each performed in duplicate. B) HKRK-B7 cells, or untransfected LLC-PK1 were treated with rPTH(1–34) or rPTH(1–14), and intracellular cAMP was measured. Shown are data (mean±s.e.m.) from a single representative experiment performed in duplicate.
Intracellular cyclic AMP: Transfected COS-7 or HKRK-B7 cells were rinsed with 500 ml of binding buffer, (50 mM Tris-HCl, pH 7.7, 100 mM NaCl, 5 mM KCl, 2 mM CaC12, 5% heat-inactivated horse serum, 0.5% heat-inactivated fetal bovine serum) and 200 ml of IBMX buffer (DMEM containing 2 mM IBMX, 1 mg/ml bovine serum albumin, 35 mM Hepes-NaOH, pH 7.4) and […] of binding buffer or binding buffer containing various amounts of peptide were added. The plates were incubated for 60 minutes at room temperature. […] After the thawing, the lysate was diluted 30-fold in dH20 and an aliquot was analyzed for cAMP content by determined radioimmunoassay using unlabeled cAMP as a standard. […]

[2] = test system: PTH-1 receptor (intact or truncated receptors used in this study); assay: Competition and direct binding assays (radioiodinated rPTH(1–34) tracer or radiolabeled PTH(1–14) analog); conditions: unlabeled peptide; radioiodinated rPTH(1–34) as tracer ligand; data not shown
Description: This reduced potency is not surprising, given that the PTH(1–14) peptide lacks important receptor-binding residues located in the PTH(15–34) region in the PTH(15–34) domain (Nussbaum, S. R., et al., J. Biol. Chem. 255:10183–10187 (1980); Gardella, T. J., et al., Endrocrinology 132(5):2024–2030 (1993); Caulfield, M. P., et al., Endocrinology 127:83–87 (1990); and Abou-Samra, A.-B., et al., Endocrinology 125:2215–2217 (1989)).

Row | Molecule | cAMP responsiveness of parental LLC-PK1 cells [1] | binding in standard competition binding assays [2]
1 | CCCC[C@H](NC(=O)[C@H](CCCNC(=N)N)NC(=O)[C@H](CCC(=O)O)NC(=O)[C@@H](NC(=O)[C@H](CO)NC(=O)[C@H](C)NC(=O)[C@H](CC(C)C)NC(=O)[C@H](Cc1c[nH]cn1)NC(=O)[C@H](CCCCN)NC(=O)CNC(=O)[C@H](CC(C)C)NC(=O)[C@H](CC(N)=O)NC(=O)[C@H](Cc1c[nH]cn1)NC(=O)[C@H](CCCC)NC(=O)[C@H](CC(C)C)NC(=O)[C@H](CCC(N)=O)NC(=O)[C@@H](NC(=O)[C@H](CCC(=O)O)NC(=O)[C@H](CO)NC(=O)[C@@H](NC(=O)[C@H](C)N)C(C)C)[C@@H](C)CC)C(C)C)C(=O)N[C@@H](CCC(N)=O)C(=O)N[C@@H](Cc1c[nH]c2ccccc12)C(=O)N[C@@H](CC(C)C)C(=O)N[C@@H](CCCNC(=N)N)C(=O)N[C@@H](CCCCN)C(=O)N[C@@H](CCCCN)C(=O)N[C@@H](CC(C)C)C(=O)N[C@@H](CCC(N)=O)C(=O)N[C@@H](CC(=O)O)C(=O)N[C@H](C(=O)N[C@@H](Cc1c[nH]cn1)C(=O)N[C@@H](CC(N)=O)C(=O)N[C@@H](Cc1ccc(O)cc1)C(N)=O)C(C)C [PTH(1–34), [Nle^8,21,Tyr^34]rPTH-(1–34)NH2] | unresponsive | 
2 | PTH(1–14): Amino-terminal peptide fragment based on the rat PTH sequence, residues 1–14, C-terminally amidated (AVSEIQLMHNLGKH-NH2) | did not activate; also recorded: unresponsive | bound too weakly to permit detection
